Test [1] addresses full-length MALT1 protein (Strep-MALT1(1-824)-His) (Homo sapiens (Human), UniProt Q9UDY8). Description: MALT1 Biochemical Protease Assay (Ac-LRSR-AMC substrate). To be noted: 10 nM FL MALT1, 200 μM Ac-LRSR-AMC, 4 h at RT; read-out: MALT1_Biochemical activity (Ac-LRSR-amc) IC50. The protocol: The tetrapeptide LRSR is coupled to AMC (7-amino-4-methylcoumarin) and provides a quenched, fluorescent substrate for the MALT1 protease (SM Biochemicals). […] Test compound concentrations ranged from 30 μM to 0.5 nM using 11 dilution steps (1:3). Background signal was measured from control wells containing assay buffer without enzyme which functions as low control (LC). High control (HC) values were generated using the reaction with enzyme but no compound treatment. Compounds were pre-incubated with MALT1 enzyme for 50 minutes at RT. […] The reaction was subsequently incubated for 4 h at RT and fluorescence was measured.
LC=Median of the low control values
An estimate of the slope of the plot in terms of the Hill coefficient was also obtained. IC50 Calculation:
[formula] With • UB=upper bound • LB=lower bound Used in “Lexis Dose Response Curve Fitting” Version 1.0.

In test [2] the test system is IL10 secretion by TMD8 ABC-DLBCL cells. Put plainly: Human IL10 Mesoscale assay (TMD-8). Type of test: cell-based. The settings on record: Homo sapiens, TMD8; TMD-8 cells, 24 h. The protocol:
(§1) NFKB signaling regulates the secretion of multiple cytokines, including IL6 and IL10. Secretion of the cytokines IL6 and IL10 by TMD8 or OCI-LY3 ABC-DLBCL cells was measured using a mesoscale assay. Inhibition of NFKB signaling by MALT1 or BTK inhibitors results in a decrease of IL6/10 secretion.
(§2) TMD8 or OCI-LY3 cells were propagated in RPMI-1640 (Sigma Aldrich) supplemented with 10% fetal bovine serum (HyClone), 1 mM sodium pyruvate (Invitrogen), 2 mM L-glutamine (Sigma Aldrich) and 1% PenStrep (Sigma Aldrich). Cell passage number should not exceed 30. Cells should be kept between 0.5-2.5 million cells per mL during culturing and cells should be supplemented every 2-3 days with fresh 50 μM beta-mercaptoenthanol. No beta-mercaptoethanol was used during the mesoscale assay.
(§3) For the Mesoscale assay, 100,000 TMD8 or OCI-LY3 cells were seeded per well into black-colored 96-well plates with clear bottom (Corning #3904) and test compounds were added in 9 dilution steps (1:2) ranging from 15 μM to 58.6 nM (final DMSO concentration 0.3%). DMSO control wells were used to determine the maximum signal (High Control (HC)). Treatment with the BTK inhibitor RN486 in a dose range from 30 nM to 131 pM (9 dilutions of 1:2) served as a positive control for NFKB pathway inhibition and was used to determine the maximum inhibition (Low Control (LC)). Compounds and cells were incubated for 24 h at 37° C. and 5% CO2 (assay volume is 150 μL). After 24 h of incubation 50 μL of the supernatant was transferred to a MSD plate (V-Plex Proinflammation Panel 1 (human) kit, Mesoscale (MSD)) and incubated for 2 h with vigorous shaking (600 rpm) at room temperature. Following incubation, plates were washed 3× with PBS+0.05% Tween-20 and 25 μL detection antibody solution (IL6 & IL10 antibodies in diluent 3 (MSD)) was added per well followed by 2 h of incubation with vigorous shaking (600 rpm) at room temperature. After 3× washes with PBS+0.05% Tween-20, plates were incubated with 150 μL 2× Read Buffer T and read on SECTOR imager.

For test [3], the system named is IL6 secretion by TMD8 ABC-DLBCL cells. Description: Human IL6 Mesoscale assay (TMD-8). To be noted: Homo sapiens, TMD8; TMD-8 cells, 24 h. Type of test: cell-based. As to the method: as §1, §2, §3

SMILES strings stand for the structures.

The results in this text go back to patent publication US10954214B2 (Janssen Pharmaceutica NV, priority 2016, dated 2021).

full-length MALT1 protein (Strep-MALT1(1-824)-His), sequence (Q9UDY8 whole entry): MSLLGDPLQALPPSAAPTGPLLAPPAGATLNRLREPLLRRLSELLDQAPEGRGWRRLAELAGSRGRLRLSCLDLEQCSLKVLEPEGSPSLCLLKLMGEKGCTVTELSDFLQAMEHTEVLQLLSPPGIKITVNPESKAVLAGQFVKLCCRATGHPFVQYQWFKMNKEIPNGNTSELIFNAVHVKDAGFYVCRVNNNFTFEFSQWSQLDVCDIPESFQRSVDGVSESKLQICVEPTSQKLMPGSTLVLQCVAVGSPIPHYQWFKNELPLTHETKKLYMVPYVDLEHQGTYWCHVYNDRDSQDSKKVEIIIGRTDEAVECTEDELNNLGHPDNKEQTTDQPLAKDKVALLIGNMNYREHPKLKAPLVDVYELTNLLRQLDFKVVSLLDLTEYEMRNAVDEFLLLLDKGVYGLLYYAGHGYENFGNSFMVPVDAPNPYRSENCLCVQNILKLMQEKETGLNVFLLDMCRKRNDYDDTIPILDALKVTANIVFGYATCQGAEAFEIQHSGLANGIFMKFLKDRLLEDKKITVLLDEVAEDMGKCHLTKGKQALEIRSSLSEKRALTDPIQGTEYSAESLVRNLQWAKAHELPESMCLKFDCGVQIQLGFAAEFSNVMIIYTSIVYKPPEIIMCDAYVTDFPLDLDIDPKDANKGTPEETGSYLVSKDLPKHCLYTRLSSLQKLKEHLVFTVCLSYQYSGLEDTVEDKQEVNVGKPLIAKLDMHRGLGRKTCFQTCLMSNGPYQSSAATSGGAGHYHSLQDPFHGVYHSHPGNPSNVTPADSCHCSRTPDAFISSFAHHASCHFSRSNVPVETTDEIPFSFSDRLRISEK

For orientation: IC50 means the midpoint of a concentration-inhibition curve. With `O=C(Nc1cnc(-n2nccn2)c(Cl)c1)c1cnn(-c2cnc([C@@H]3CCCO3)c3ccccc23)c1C(F)(F)F` (single isomer, unassigned) [Cpd 437, (*S)—N-(5-chloro-6-(2H-1,2,3-triazol-2-yl)pyridin-3-yl)-1-(1-(tetrahydrofuran-2-yl)isoquinolin-4-yl)-5-(trifluoromethyl)-1H-pyrazole-4-carboxamide], the values for the IC50 in test [1], in test [2] and in test [3] were 1780 nM, 2510 nM and 7590 nM, respectively.
In the case of `O=C1CO[C@@H](c2ncc(-n3ncc(C(=O)Nc4cnc(-n5nccn5)c(Cl)c4)c3C(F)(F)F)c3ccccc23)C1` (single isomer, unassigned) [Cpd 438, (*R)—N-(5-chloro-6-(2H-1,2,3-triazol-2-yl)pyridin-3-yl)-1-(1-(4-oxotetrahydrofuran-2-yl)isoquinolin-4-yl)-5-(trifluoromethyl)-1H-pyrazole-4-carboxamide], the IC50 amounted to 71 nM in test [1], 2140 nM in test [2] and 6610 nM in test [3].
With `O=C1CO[C@H](c2ncc(-n3ncc(C(=O)Nc4cnc(-n5nccn5)c(Cl)c4)c3C(F)(F)F)c3ccccc23)C1` (single isomer, unassigned) [Cpd 439, (*S)—N-(5-chloro-6-(2H-1,2,3-triazol-2-yl)pyridin-3-yl)-1-(1-(4-oxotetrahydrofuran-2-yl)isoquinolin-4-yl)-5-(trifluoromethyl)-1H-pyrazole-4-carboxamide], the IC50 was determined as 178 nM in test [1], 1000 nM in test [2] and 4270 nM in test [3].
On the same counts, the results for `O=C(Nc1cnc(-n2nccn2)c(Cl)c1)c1cnn(-c2cccc3nc([C@H]4CCCO4)ccc23)c1C(F)(F)F` (single isomer, unassigned) [Cpd 440, (*R)—N-(5-chloro-6-(2H-1,2,3-triazol-2-yl)pyridin-3-yl)-1-(2-(tetrahydrofuran-2-yl)quinolin-5-yl)-5-(trifluoromethyl)-1H-pyrazole-4-carboxamide] are 1580 nM, 162 nM and 186 nM.
On the same counts, the results for `C[C@H](O)c1ncc(-n2ncc(C(=O)Nc3cnc(-n4nccn4)c(Cl)c3)c2C(F)(F)F)c2ccccc12` (single isomer, unassigned) [Cpd 443, (*S)—N-(5-chloro-6-(2H-1,2,3-triazol-2-yl)pyridin-3-yl)-1-(1-(1-hydroxyethyl)isoquinolin-4-yl)-5-(trifluoromethyl)-1H-pyrazole-4-carboxamide] are 13 nM, 50 nM and 46 nM.
Regarding `O=C(Nc1cnc(-c2ncco2)c(Cl)c1)c1cnn(-c2cccc3ncccc23)c1C(F)(F)F` [Cpd 91, N-(5-chloro-6-(oxazol-2-yl)pyridin-3-yl)-1-(quinolin-5-yl)-5-(trifluoromethyl)-1H-pyrazole-4-carboxamide], the IC50 in test [1] is 15 nM; in test [2] it was 155 nM; in test [3], 151 nM.
The matching figures for `N#Cc1cc(NC(=O)c2cnn(-c3ccnc4c(F)cccc34)c2C(F)(F)F)cnc1-n1nccn1` [Cpd 92, N-(5-cyano-6-(2H-1,2,3-triazol-2-yl)pyridin-3-yl)-1-(8-fluoroquinolin-4-yl)-5-(trifluoromethyl)-1H-pyrazole-4-carboxamide]: 19 nM, 132 nM and 102 nM.
As to `N#Cc1cc(NC(=O)c2cnn(-c3cnnc4ccccc34)c2C(F)(F)F)cnc1-n1nccn1` [Cpd 93, 1-(Cinnolin-4-yl)-N-(5-cyano-6-(2H-1,2,3-triazol-2-yl)pyridin-3-yl)-5-(trifluoromethyl)-1H-pyrazole-4-carboxamide], the 50% inhibitory concentration (IC50) in test [1] came out at 60 nM; in test [2], 501 nM; in test [3], 447 nM.
Turning to `N#Cc1cc(NC(=O)c2cnn(-c3nccc4occc34)c2C(F)(F)F)cnc1-n1nccn1` [Cpd 94, N-(5-cyano-6-(2H-1,2,3-triazol-2-yl)pyridin-3-yl)-1-(furo[3,2-c]pyridin-4-yl)-5-(trifluoromethyl)-1H-pyrazole-4-carboxamide], the values for the IC50 in test [1], in test [2] and in test [3] were 19 nM, 105 nM and 89 nM, respectively.
The matching figures for `N#Cc1cc(NC(=O)c2cnn(-c3nncc4ccccc34)c2C(F)(F)F)cnc1-n1nccn1` [Cpd 102, N-(5-cyano-6-(2H-1,2,3-triazol-2-yl)pyridin-3-yl)-1-(phthalazin-1-yl)-5-(trifluoromethyl)-1H-pyrazole-4-carboxamide]: 42 nM, 186 nM and 110 nM.
Take `N#Cc1cc(NC(=O)c2cnn(-c3nccn4ccnc34)c2C(F)(F)F)cnc1-n1nccn1` [Cpd 103, N-(5-Cyano-6-(2H-1,2,3-triazol-2-yl)pyridin-3-yl)-1-(imidazo[1,2-a]pyrazin-8-yl)-5-(trifluoromethyl)-1H-pyrazole-4-carboxamide]: the IC50 was 1510 nM in test [1], more than 15000 nM in test [2] and more than 15000 nM in test [3].
With `O=C(Nc1cnc(-c2ncc[nH]2)c(Cl)c1)c1cnn(-c2cncc3ccccc23)c1C(F)(F)F` [Cpd 104, N-(5-chloro-6-(1H-imidazol-2-yl)pyridin-3-yl)-1-(isoquinolin-4-yl)-5-(trifluoromethyl)-1H-pyrazole-4-carboxamide], the values for the IC50 in test [1], in test [2] and in test [3] were 204 nM, more than 15000 nM and more than 15000 nM, respectively.
Turning to `N#Cc1cc(NC(=O)c2cnn(-c3cccc4nccnc34)c2C(F)(F)F)cnc1-n1nccn1` [Cpd 105, N-(5-Cyano-6-(2H-1,2,3-triazol-2-yl)pyridin-3-yl)-1-(quinoxalin-5-yl)-5-(trifluoromethyl)-1H-pyrazole-4-carboxamid], the IC50 in test [1] was determined as 58 nM; in test [2], 813 nM; in test [3], 851 nM.
On the same counts, the results for `O=C(Nc1cnc(OC(F)F)c(Cl)c1)c1cnn(-c2cncc3ccccc23)c1C(F)(F)F` [Cpd 106, N-(5-chloro-6-(difluoromethoxy)pyridin-3-yl)-1-(isoquinolin-4-yl)-5-(trifluoromethyl)-1H-pyrazole-4-carboxamide] are 447 nM, 617 nM and 1260 nM.
For `O=C(Nc1cnc(N2CCCC2=O)c(Cl)c1)c1cnn(-c2cncc3ccccc23)c1C(F)(F)F` [Cpd 107, N-(5-chloro-6-(2-oxopyrrolidin-1-yl)pyridin-3-yl)-1-(isoquinolin-4-yl)-5-(trifluoromethyl)-1H-pyrazole-4-carboxamide], the results for the IC50 in test [1], in test [2] and in test [3] were 1290 nM, 1180 nM and 3470 nM, respectively.
In the case of `Cc1cc2nccc(-n3ncc(C(=O)Nc4cnc(-n5nccn5)c(C#N)c4)c3C(F)(F)F)c2o1` [Cpd 151, N-(5-cyano-6-(2H-1,2,3-triazol-2-yl)pyridin-3-yl)-1-(2-methylfuro[3,2-b]pyridin-7-yl)-5-(trifluoromethyl)-1H-pyrazole-4-carboxamide], the IC50 amounted to 214 nM in test [1], 200 nM in test [2] and 224 nM in test [3].
`O=C(Nc1ccnc(C(F)(F)F)c1)c1cnn(-c2cccc3c(=O)[nH]ccc23)c1C(F)(F)F` [Cpd 158, 1-(1-oxo-1,2-dihydroisoquinolin-5-yl)-5-(trifluoromethyl)-N-(2-(trifluoromethyl)pyridin-4-yl)-1H-pyrazole-4-carboxamide]: the figures for the IC50 in test [2] and in test [3] were 380 nM and more than 1510 nM, respectively.
Take `N#Cc1cc(NC(=O)c2cnn(-c3cccc4nc(N)nn34)c2C(F)(F)F)cnc1-n1nccn1` [Cpd 159, 1-(2-amino-[1,2,4]triazolo[1,5-a]pyridin-5-yl)-N-(5-cyano-6-(2H-1,2,3-triazol-2-yl)pyridin-3-yl)-5-(trifluoromethyl)-1H-pyrazole-4-carboxamide]: the IC50 in test [1] is 105 nM; in test [2], 955 nM; in test [3], more than 15100 nM.
